Source: PubChem BioAssay AID504561 (Southern Research Specialized Biocontainment Screening …, 2011)

system: HeLa-CD4-LTR-beta-gal/HL2/3 cell fusion, beta-gal luminescence; test: inhibitors of CXCR4-tropic HIV-1 Env cell-cell fusion, dose response, HL2/3 with HeLa-CD4 reporter cells, 2% serum, set 2 (AID 504561)

IC50, active:
Cc1c2c(=O)n(-c3nc4ccccc4s3)nc-2cc(O)n1CCc1cccs1 7.14 µM
COc1ccc(CCn2c(O)cc3nn(-c4nc5ccccc5s4)c(=O)c-3c2C)cc1 6.94 µM
Cc1c2c(=O)n(-c3nc4ccccc4s3)nc-2cc(O)n1C1CC1 3.56 µM
COc1ccccc1Cn1c(O)cc2nn(-c3nc4ccccc4s3)c(=O)c-2c1C 4.55 µM
Cc1c2c(=O)n(-c3nc4ccccc4s3)nc-2cc(O)n1Cc1ccccc1 27.4 µM
Cc1c2c(=O)n(-c3nc4ccccc4s3)nc-2cc(O)n1CCC(C)C 5.2 µM
Cc1c2c(=O)n(-c3nc4ccccc4s3)nc-2cc(O)n1Cc1cccs1 4.77 µM
Cc1c2c(=O)n(-c3nc4ccccc4s3)nc-2cc(O)n1Cc1cccnc1 5.71 µM
Cc1c2c(=O)n(-c3nc4ccccc4s3)nc-2cc(O)n1Cc1ccncc1 9.59 µM
COc1ccc(Cn2c(O)cc3nn(-c4nc5ccccc5s4)c(=O)c-3c2C)cc1 7.91 µM
Cc1c2c(=O)n(-c3nc4ccccc4s3)nc-2cc(O)n1CCc1ccc(O)cc1 9.72 µM
Cc1c2c(=O)n(-c3nc4ccccc4s3)nc-2cc(O)n1Cc1ccccc1Cl 5.42 µM
Cc1c2c(=O)n(-c3nc4ccccc4s3)nc-2cc(O)n1Cc1ccc(F)cc1 3.9 µM
